ChEMBL document CHEMBL1144015, “Antiproliferative effects on human tumor cells and rat aortic smooth muscular cells of 2,3-heteroarylmaleimides and heterofused imides” (Bioorg Med Chem, 2008)
Calls of active or inactive are those of the source. The calls are words filed in the database; no cut-off is given here.

Tests used:
[1] = Partition coefficient, log P of the compound; assay type: physicochemical; conditions: octanol/water
[2] = Effect on cell proliferation of Sprague-Dawley rat smooth muscle cells after 72 hrs
[3] = Binding affinity to supercoiled pRYG DNA by DNA intercalating assay
[4] = test system: NCI-H460; assay: Antiproliferative activity against human NCI-H460 cells after 72 hrs; assay type: functional, cell-based; conditions: NCI-H460, 72 h

| SMILES | logP [1] | Activity [3] | IC50 [4] [µM] | IC50 [2] [µM] |
| --- | --- | --- | --- | --- |
| CCN(CC)CCN1C(=O)C(c2cccs2)=C(c2cccn2C)C1=O | 1.7 | inactive | 9 | 12.1 |
| CCN(CC)CCN1C(=O)c2c(c3c(ccn3C)c3ccoc23)C1=O | 1.7 |  | 8.6 | 5.3 |
| CCN(CC)CCN1C(=O)c2c(c3sccc3c3ccoc23)C1=O | 3 |  | > 30 | > 30 |
| CN(C)CCN1C(=O)c2cccc3cc(N)cc(c23)C1=O [AMONAFIDE] | 1.6 |  | 7.8 | 0.48 |
| CCN(CC)CCN1C(=O)C(c2c[nH]c3ccccc23)=C(c2cccn2C)C1=O | 2.9 |  | 8.5 | 3.6 |
| O=C1c2cccc3cccc(c23)C(=O)N1CCNCCCNCCN1C(=O)c2cccc3cccc(c23)C1=O |  | Active |  |  |
| CCN(CC)CCN1C(=O)C(c2ccco2)=C(c2cccn2C)C1=O | 0.9 |  | > 30 |  |
| CCN(CC)CCN1C(=O)C(c2ccco2)=C(c2cccs2)C1=O | 2.1 |  | 8.7 | 2.1 |
| CCN(CC)CCN1C(=O)C(c2cccs2)=C(c2cccs2)C1=O | 2.9 | inactive | 8.9 | 3.9 |

Continued by falling IC50 [4], values first:

| logP [1] | Activity [3] | IC50 [4] [µM] | SMILES | IC50 [2] [µM] |
| --- | --- | --- | --- | --- |
| 3.8 |  | 8.4 | CCN(CC)CCN1C(=O)C(c2cc3ccccc3[nH]2)=C(c2cccs2)C1=O | 5.3 |
| 3.9 |  | 7.1 | CCN(CC)CCN1C(=O)c2c(c3sccc3c3ccccc23)C1=O | 13.9 |
| 3.8 | inactive | 4.8 | CCN(CC)CCN1C(=O)c2c(c3sccc3c3ccsc23)C1=O | 0.53 |
| 3.8 |  | 1.9 | CCN(CC)CCN1C(=O)C(c2cccs2)=C(c2c[nH]c3ccccc23)C1=O | 1 |
| 4.1 |  | 0.9 | CCN(CC)CCN1C(=O)c2c(c3ccccc3c3ccccc23)C1=O | 0.68 |
| 2.5 | inactive | 0.84 | CCN(CC)CCN1C(=O)c2c(c3c(ccn3C)c3ccsc23)C1=O | 0.08 |
